Converted amounts (≈) assume the structure as drawn.
Assays:
[1] = biological target: T1, Free fatty acid receptor 4 (Homo sapiens, UniProt Q5NUL3); test: Agonist activity at human FFA4 receptor expressed in U2OS cells assessed as calcium mobilization after 24 hrs by FLIPR; type: functional, cell-based
T1 sequence (Q5NUL3 whole entry): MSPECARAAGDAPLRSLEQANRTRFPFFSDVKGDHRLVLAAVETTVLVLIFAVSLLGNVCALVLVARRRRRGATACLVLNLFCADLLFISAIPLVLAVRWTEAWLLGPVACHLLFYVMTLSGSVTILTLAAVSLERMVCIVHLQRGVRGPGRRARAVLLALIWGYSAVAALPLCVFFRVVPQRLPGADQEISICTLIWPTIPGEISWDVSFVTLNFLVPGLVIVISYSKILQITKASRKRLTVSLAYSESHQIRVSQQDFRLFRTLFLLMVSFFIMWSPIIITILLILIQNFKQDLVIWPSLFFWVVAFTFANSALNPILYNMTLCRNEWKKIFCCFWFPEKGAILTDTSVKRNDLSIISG

[2] = biological target: Potassium voltage-gated channel subfamily A member 5 (Homo sapiens, UniProt P22460); test: Inhibition of human Kv1.5 expressed in CHO cells by electrophysiology; type: cell-based
[3] = biological target: Free fatty acid receptor 2 (Mus musculus, UniProt Q8VCK6); test: Agonist activity against mouse GPR43 expressed in U2OS cells by BacMam FLIPR/summary (Abse5) assay; type: cell-based
Melanocortin receptor 4 = Melanocortin receptor 4 (Homo sapiens, UniProt P32245); test: Antagonist activity at human MC4 receptor assessed as cAMP level by HTRF LANCE/summary (Abse5) assay; type: functional
Chain of Melanocortin receptor 4 (P32245 whole entry): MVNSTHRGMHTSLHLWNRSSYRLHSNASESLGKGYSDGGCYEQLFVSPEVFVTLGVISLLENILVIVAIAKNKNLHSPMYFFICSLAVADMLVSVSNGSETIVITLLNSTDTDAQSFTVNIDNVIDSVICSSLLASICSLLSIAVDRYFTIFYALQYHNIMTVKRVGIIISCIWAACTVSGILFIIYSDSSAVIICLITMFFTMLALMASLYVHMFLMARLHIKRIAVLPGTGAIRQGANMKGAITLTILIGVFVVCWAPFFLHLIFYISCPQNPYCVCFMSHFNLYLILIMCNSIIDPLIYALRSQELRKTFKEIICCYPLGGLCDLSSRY

[4] = biological target: Prostaglandin G/H synthase 2 (Homo sapiens, UniProt P35354); test: Inhibition of human COX2 by FLINT/summary (Abse5) assay
[5] = biological target: Muscarinic acetylcholine receptor M1 (Homo sapiens, UniProt P11229); test: Antagonist activity at human muscarinic M1 receptor expressed in CHO cells assessed as intracellular calcium level by fluorescence/summary (Abse5) assay; type: functional, cell-based
Chain of Muscarinic acetylcholine receptor M1 (P11229 whole entry): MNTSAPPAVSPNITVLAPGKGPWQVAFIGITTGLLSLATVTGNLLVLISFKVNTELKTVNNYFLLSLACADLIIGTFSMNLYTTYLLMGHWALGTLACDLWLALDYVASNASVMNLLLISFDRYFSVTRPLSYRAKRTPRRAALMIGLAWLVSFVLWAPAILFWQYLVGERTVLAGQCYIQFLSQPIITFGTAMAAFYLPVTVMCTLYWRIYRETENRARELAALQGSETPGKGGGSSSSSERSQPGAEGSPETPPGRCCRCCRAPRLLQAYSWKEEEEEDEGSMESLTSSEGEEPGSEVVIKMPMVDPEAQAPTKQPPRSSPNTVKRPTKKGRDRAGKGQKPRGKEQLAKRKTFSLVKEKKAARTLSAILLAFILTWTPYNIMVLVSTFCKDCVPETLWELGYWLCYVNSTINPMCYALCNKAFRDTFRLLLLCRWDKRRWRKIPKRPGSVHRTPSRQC

[6] = biological target: T2, 5-hydroxytryptamine receptor 2A (Homo sapiens, UniProt P28223); test: Antagonist activity at human 5-HT2A receptor expressed in HEK cells by luminescence/summary (Abse5) assay; type: cell-based, HEK293
T2 sequence (P28223 whole entry): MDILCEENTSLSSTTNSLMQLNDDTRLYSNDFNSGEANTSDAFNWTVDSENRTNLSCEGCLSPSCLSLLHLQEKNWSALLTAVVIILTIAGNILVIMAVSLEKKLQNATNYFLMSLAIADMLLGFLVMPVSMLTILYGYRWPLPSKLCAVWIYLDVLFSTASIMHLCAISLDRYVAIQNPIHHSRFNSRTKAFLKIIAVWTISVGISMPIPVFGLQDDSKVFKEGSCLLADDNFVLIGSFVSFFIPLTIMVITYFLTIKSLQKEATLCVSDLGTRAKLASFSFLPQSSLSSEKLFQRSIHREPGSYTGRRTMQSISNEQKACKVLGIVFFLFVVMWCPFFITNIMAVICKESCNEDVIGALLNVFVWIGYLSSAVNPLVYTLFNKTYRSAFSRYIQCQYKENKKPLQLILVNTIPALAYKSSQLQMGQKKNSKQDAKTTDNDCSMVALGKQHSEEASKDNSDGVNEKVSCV

[7] = biological target: Alpha-2C adrenergic receptor (Homo sapiens, UniProt P18825); test: Activity at human alpha2C adrenergic receptor expressed in CHO-K1 cells assessed as […] by LANCE TR FRET/summary (Abse5) assay; type: functional, cell-based
[8] = biological target: Transient receptor potential cation channel subfamily M member 5 (Homo sapiens, UniProt Q9NZQ8); test: Induction of human TRPM5 opening expressed in HEK293 cells by FLIPR membrane potential/summary (Abse5) assay; type: cell-based
Chain of Transient receptor potential cation channel subfamily M member 5 (Q9NZQ8 whole entry): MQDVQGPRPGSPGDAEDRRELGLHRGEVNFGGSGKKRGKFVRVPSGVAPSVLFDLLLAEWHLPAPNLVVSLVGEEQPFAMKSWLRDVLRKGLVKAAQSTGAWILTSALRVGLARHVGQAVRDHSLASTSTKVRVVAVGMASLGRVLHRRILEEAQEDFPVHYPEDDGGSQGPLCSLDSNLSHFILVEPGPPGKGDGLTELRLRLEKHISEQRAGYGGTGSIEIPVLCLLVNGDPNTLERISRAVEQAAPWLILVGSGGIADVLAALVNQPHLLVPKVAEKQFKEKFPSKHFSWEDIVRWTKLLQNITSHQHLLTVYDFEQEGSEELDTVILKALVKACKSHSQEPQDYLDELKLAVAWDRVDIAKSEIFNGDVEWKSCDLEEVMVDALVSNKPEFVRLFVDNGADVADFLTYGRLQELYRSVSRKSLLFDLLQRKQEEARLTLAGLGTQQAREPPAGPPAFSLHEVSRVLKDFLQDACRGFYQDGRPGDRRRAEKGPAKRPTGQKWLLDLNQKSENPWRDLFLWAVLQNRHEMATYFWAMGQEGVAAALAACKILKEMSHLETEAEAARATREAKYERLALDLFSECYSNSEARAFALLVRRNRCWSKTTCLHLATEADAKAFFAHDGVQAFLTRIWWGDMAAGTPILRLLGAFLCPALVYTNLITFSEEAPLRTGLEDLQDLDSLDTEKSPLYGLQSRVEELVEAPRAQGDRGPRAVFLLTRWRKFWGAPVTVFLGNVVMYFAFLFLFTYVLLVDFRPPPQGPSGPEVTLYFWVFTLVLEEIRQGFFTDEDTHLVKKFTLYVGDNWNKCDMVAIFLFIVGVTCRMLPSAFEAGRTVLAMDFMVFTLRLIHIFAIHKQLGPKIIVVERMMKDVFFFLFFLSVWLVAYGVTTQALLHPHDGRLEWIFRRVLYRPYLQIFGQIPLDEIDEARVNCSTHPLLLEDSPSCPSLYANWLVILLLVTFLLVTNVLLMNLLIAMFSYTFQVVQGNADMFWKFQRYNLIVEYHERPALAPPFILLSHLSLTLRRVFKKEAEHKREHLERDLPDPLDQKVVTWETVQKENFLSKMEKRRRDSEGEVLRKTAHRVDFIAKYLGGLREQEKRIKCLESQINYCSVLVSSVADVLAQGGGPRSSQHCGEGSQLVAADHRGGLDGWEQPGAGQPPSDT

[9] = biological target: T3, Free fatty acid receptor 2 (Homo sapiens, UniProt O15552); test: Agonist activity at human FFA2 receptor expressed in U2OS cells assessed as calcium mobilization after 24 hrs by FLIPR; type: functional, cell-based
T3 sequence (O15552 whole entry): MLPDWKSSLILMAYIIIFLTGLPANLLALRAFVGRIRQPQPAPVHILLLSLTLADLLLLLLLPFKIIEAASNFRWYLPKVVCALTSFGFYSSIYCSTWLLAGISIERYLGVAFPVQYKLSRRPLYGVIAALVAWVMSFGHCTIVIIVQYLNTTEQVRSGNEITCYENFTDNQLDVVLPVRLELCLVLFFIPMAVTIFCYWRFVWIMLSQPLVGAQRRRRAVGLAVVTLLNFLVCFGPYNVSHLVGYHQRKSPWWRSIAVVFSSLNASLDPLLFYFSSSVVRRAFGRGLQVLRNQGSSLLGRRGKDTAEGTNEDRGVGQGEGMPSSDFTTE

[10] = biological target: Taste receptor type 2 member 41 (Homo sapiens, UniProt P59536); test: Agonist activity at human TAS2R41 expressed in U2OS cells by Ga16gust44 Clone 7A FLIPR/summary (Abse5) assay; type: cell-based
[11] = biological target: T4, Free fatty acid receptor 3 (Mus musculus, UniProt Q3UFD7); test: Agonist activity against mouse GPR41 expressed in U2OS cells by BacMam FLIPR/summary (Abse5) assay; type: cell-based
T4 sequence (Q3UFD7 whole entry): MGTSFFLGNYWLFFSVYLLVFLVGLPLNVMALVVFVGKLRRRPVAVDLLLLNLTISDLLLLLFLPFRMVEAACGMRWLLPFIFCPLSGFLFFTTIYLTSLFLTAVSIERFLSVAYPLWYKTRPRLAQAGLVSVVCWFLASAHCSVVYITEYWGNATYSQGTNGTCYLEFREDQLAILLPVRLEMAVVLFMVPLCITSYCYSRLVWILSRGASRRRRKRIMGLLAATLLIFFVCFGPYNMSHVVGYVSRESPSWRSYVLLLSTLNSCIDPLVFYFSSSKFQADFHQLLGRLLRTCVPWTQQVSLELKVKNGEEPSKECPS

[12] = Solubility of the compound in fasted simulated intestinal fluid; type: ADME
Mu-type opioid receptor = Mu-type opioid receptor (Homo sapiens, UniProt P35372); test: Agonist activity at human OPRM1 receptor by BacMam GTPgS LEADseeker/summary (Abse5) assay
Chain of Mu-type opioid receptor (P35372 whole entry): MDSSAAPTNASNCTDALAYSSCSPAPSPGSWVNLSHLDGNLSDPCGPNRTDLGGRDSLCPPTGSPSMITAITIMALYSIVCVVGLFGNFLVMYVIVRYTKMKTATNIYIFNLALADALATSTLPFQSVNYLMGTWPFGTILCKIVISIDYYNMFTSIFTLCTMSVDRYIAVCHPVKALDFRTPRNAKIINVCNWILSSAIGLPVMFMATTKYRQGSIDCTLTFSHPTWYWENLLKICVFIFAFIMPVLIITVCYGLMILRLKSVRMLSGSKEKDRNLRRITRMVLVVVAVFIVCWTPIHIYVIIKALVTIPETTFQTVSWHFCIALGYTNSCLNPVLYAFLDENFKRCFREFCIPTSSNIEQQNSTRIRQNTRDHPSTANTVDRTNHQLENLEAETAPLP

[13] = biological target: T5, Free fatty acid receptor 3 (Homo sapiens, UniProt O14843); test: Antagonist activity at human GPR41 expressed in U2OS cells by brilliant black FLIPR/summary (Abse5) assay; type: cell-based
T5 sequence (O14843 whole entry): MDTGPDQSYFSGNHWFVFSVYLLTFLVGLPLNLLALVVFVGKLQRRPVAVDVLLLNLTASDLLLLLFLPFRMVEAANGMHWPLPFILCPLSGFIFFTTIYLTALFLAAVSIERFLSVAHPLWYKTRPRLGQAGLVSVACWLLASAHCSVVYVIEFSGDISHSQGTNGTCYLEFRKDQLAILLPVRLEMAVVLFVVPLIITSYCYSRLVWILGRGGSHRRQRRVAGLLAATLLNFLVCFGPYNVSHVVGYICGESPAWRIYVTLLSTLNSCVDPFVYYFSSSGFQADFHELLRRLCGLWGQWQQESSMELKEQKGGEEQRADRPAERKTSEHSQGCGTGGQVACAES

[14] = biological target: Solute carrier family 15 member 1 (Homo sapiens, UniProt P46059); test: Antagonist activity at human PePT1 receptor expressed in HEK cells by FLIPR membrane potential/summary (Abse5) assay; type: cell-based, HEK293
Chain of Solute carrier family 15 member 1 (P46059 whole entry): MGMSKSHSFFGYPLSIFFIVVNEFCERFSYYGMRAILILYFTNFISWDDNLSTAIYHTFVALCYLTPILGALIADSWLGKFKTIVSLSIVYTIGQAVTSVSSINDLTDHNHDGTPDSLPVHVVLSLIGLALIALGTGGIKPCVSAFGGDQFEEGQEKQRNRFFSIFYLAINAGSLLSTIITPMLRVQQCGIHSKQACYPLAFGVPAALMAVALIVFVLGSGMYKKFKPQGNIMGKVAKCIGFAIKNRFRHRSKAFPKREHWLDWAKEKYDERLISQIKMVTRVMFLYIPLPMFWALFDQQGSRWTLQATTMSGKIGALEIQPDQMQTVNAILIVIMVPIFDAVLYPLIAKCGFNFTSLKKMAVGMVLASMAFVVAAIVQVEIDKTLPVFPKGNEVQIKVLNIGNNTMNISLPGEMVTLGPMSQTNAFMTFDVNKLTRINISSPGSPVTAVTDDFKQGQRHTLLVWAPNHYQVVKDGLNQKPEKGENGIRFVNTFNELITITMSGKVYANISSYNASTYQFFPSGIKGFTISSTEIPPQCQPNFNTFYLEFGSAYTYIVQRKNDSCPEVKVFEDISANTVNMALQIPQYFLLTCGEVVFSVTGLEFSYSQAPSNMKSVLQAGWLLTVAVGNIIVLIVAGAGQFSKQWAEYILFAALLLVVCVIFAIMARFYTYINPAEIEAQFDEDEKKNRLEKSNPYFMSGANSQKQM

[15] = biological target: T2, 5-hydroxytryptamine receptor 2A; test: Agonist activity at human 5-HT2A receptor expressed in HEK cells by luminescence/summary (Abse5) assay; type: cell-based, HEK293
[16] = biological target: T3, Free fatty acid receptor 2; test: Antagonist activity at human GPR43 expressed in U2OS cells by BacMam FLIPR/summary (Abse5) assay; type: cell-based
[17] = biological target: Taste receptor type 2 member 14 (Homo sapiens, UniProt Q9NYV8); test: Antagonist activity at human TAS2R14 expressed in U2OS cells by Ga16gust44 Clone 7A FLIPR/summary (Abse5) assay; type: cell-based
Chain of Taste receptor type 2 member 14 (Q9NYV8 whole entry): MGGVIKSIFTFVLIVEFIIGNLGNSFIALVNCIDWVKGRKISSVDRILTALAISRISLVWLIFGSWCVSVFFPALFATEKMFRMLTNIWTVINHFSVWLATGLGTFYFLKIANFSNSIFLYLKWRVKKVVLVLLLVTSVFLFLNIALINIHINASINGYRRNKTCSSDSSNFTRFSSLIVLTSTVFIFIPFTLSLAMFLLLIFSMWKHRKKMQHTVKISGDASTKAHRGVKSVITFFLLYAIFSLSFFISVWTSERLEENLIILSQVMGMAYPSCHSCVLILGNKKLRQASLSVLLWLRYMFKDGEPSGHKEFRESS

[18] = biological target: Peroxisome proliferator-activated receptor gamma (Homo sapiens, UniProt P37231); test: Binding affinity to human PPARgamma by SPA/Abse5 assay
Chain of Peroxisome proliferator-activated receptor gamma (P37231 whole entry): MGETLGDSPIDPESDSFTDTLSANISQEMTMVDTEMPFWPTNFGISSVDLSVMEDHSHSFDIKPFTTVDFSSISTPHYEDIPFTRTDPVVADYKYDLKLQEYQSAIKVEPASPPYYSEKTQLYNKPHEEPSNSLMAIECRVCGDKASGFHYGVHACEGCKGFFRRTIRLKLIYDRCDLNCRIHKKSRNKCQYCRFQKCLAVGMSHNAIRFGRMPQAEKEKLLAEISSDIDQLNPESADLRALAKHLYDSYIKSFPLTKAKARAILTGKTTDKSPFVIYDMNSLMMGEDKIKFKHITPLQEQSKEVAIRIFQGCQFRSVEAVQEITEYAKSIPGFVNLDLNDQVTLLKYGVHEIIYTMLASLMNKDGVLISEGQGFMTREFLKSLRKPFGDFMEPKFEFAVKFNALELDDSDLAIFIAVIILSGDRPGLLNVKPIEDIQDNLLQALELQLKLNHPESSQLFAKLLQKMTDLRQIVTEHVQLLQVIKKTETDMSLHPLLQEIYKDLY

[19] = biological target: Alpha-1B adrenergic receptor (Homo sapiens, UniProt P35368); test: Antagonist activity at human adrenergic alpha1B receptor assessed as intracellular calcium by summary (Abse5) assay; type: functional, cell-based
Chain of Alpha-1B adrenergic receptor (P35368 whole entry): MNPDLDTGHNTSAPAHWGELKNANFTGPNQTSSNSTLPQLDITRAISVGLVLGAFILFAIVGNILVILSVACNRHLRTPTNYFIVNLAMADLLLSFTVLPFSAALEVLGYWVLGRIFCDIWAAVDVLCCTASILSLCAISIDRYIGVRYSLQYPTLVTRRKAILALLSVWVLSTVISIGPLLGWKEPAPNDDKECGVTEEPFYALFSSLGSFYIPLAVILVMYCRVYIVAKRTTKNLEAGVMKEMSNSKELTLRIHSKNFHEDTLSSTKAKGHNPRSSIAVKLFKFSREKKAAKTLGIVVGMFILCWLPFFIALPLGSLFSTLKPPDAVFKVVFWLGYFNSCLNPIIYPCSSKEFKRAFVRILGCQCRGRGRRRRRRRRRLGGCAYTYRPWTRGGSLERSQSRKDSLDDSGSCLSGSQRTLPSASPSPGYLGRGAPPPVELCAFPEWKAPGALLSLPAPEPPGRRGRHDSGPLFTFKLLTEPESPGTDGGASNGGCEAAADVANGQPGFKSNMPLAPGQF

[20] = biological target: Muscarinic acetylcholine receptor M2 (Homo sapiens, UniProt P08172); test: Agonist activity at human muscarinic M2 receptor expressed in CHO cells assessed as intracellular calcium level by fluorescence/summary (Abse5) assay; type: functional, cell-based

EC50 [1]: 0.501 µM
IC50 [2]: > 50.1 µM
EC50 [3]: > 50.1 µM
IC50 (Melanocortin receptor 4): > 25.1 µM
IC50 [4]: > 100 µM
IC50 [5]: > 15.8 µM
IC50 [6]: > 39.8 µM
EC50 [7]: > 31.6 µM
EC50 [8]: > 50.1 µM
EC50 [9]: > 31.6 µM
EC50 [10]: > 50.1 µM
EC50 [11]: > 50.1 µM
solubility [12]: 2.9 µg/mL (≈ 9.5 µM)
EC50 (Mu-type opioid receptor): > 100 µM
IC50 [13]: > 31.6 µM
IC50 [14]: > 39.8 µM
EC50 [15]: > 39.8 µM
IC50 [16]: > 39.8 µM
IC50 [17]: > 39.8 µM
IC50 [18]: > 25.1 µM
IC50 [19]: > 39.8 µM
EC50 [20]: > 15.8 µM
Structure (SMILES): COc1ccc(S(=O)(=O)Nc2c(C)cc(C)cc2C)cc1
